Like-named read-outs stand apart in the source and are kept apart here.
Legend:
male Wistar rats = assay: Anticonflict action, NaCl-Lick conflict method; assay type: in vivo; conditions: Rattus norvegicus, po, 1 hour before the test; number of licks in 5 minutes of 2% saline; rats deprived of water for 48 hours; read-out: Minimum effective dosage
Description: The anticonflict action of the compounds of the general formulae (I), (II), and (III) was evaluated in accordance with the NaCl-Lick conflict method of Tanga et al. (Pharmacol., Biochem., Behav., vol. 32, pp. 773-776, 1989). That is, six-week old male Wistar rats in groups of six to 10 were deprived of water for 48 hours and placed in an experimental apparatus placed in a soundproof box (apparatus made of acrylic resin, 20×20×30 cm, provided with a drinking outlet having a diameter of 1 cm at height of 8 cm from the floor, designed to be able to measure the number of drops per unit hour by a drinkometer), and the anticonflict action of the medicament was evaluated using as an indicator the number of drops (number of licks) in 5 minutes from the start of drinking of 2% saline. The tested medicament was orally administered in an amount of 0.2 ml/100 g body weight 1 hour before the start of the test.

dopamine D2 receptor = target: T1, dopamine D2 receptor (Rattus norvegicus, UniProt P61169); assay: Affinity with dopamine D2 receptor, [3H]Raclopride binding; design: species or system male Wistar rats; conditions: 1.0 nM [3H]Raclopride, rat corpus striatum preparation, 25° C., 60 minutes
T1 construct: the corpus striatums excised from male Wistar rats were homogenized; from tissue; host or cells: rat corpus striatum membrane homogenate
T1 sequence (P61169 whole entry): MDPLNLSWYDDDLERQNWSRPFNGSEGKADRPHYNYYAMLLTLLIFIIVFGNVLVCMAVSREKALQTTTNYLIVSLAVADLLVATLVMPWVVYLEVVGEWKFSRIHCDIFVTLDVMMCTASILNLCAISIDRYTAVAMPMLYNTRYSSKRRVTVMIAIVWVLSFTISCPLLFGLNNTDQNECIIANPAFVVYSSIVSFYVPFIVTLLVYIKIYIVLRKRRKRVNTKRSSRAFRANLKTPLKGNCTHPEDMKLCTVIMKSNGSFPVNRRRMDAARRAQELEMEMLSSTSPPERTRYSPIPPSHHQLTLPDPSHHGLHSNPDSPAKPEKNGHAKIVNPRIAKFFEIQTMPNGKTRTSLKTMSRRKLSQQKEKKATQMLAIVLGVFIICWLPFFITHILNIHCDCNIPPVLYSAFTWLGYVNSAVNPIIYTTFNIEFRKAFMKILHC
Description: The affinity of the compounds of the general formulas (I), (II), and (III) with a dopamine D2 receptor was evaluated in accordance with the method of Kakohler et al. (Biochem. Pharmacol., vol. 34, pp. 2251-2259, 1985). That is, the corpus striatums excised from male Wistar rats were homogenized with the addition of 120 mM sodium chloride, 5 mM potassium chloride, 2 mM calcium chloride, 1 mM magnesium chloride, and 0.01% ascorbic acid contained in 50 mM tris-phosphate buffer (pH 7.7). The homogenate was centrifuged at […] and 35000×g for 10 minutes. The same buffer was added to the resultant precipitate,then this was homogenized again and was similarly centrifuged to obtain the precipitate. The same buffer was added to this precipitate which was then again homogenized to prepare the dopamine D2 receptor.
For the binding experiment, use was made of 1.0 nM of [3H]3,5-dichloro-N-[(1-ethyl-2-pyrrolidinyl)methyl]-6-hydroxy-o-anisamide (Raclopride), various concentrations of test samples were added to a system of 0.34 mg/ml of protein or a total of 0.25 ml, incubation was performed at 25° C. for 60 minutes, then the radioactivity was measured in the same way as in the Evaluation Example 1 to find the degree of binding.
The 50% inhibiting concentration of binding affinity (IC50) was calculated from the degrees of binding at various concentrations of the added samples. […] The IC50 values of typical compounds are shown together with the IC50 values for the serotonin receptor.

[1] = target: T2, serotonin 5-HT1A receptor (Rattus norvegicus, UniProt P19327); assay: Affinity with serotonin receptor, [3H]8-OH-DPAT binding; design: species or system male Wistar rats; conditions: for D2/5-HT1A: ratio of IC50 (D2) to IC50 (5-HT1A)
T2 construct: the hippocampuses extracted from male Wistar rats were homogenized; from tissue; host or cells: rat hippocampus membrane homogenate
T2 sequence (P19327 1-422): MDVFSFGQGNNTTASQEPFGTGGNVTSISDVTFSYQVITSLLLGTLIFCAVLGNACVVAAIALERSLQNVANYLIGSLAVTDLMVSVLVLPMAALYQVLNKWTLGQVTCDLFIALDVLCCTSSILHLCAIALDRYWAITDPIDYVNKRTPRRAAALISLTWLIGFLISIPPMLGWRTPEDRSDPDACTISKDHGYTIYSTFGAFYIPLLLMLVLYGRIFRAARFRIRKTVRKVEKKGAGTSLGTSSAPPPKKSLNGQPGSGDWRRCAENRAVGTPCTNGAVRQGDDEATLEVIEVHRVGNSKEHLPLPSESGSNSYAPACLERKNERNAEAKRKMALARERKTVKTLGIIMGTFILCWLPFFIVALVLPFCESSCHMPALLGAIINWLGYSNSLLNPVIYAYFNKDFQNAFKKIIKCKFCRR
Description: The affinity of the compounds of the general formulas (I), (II), and (III) with a serotonin receptor was evaluated in accordance with the method of S. T. Peuroutka et al. (J. Neurochem., vol. 47, pp. 529-540, 1986). That is, the hippocampuses extracted from male Wistar rats were homogenized while adding 50 mM tris-phosphate buffer (pH 7.7). The homogenate was centrifuged at […] and 40000×g for 10 minutes. The same buffer was added to the obtained precipitate, then this was homogenized again and was similarly centrifuged to obtain the precipitate. This homogenization-centrifugation operation was repeated two times to obtain a final precipitate to which was then added 10 uM of N-methyl-N-2-propynylbenzylamine (Pargyline), 4 mM of calcium chloride, and 0.1% ascorbic acid contained in a 50 mM tris-phosphate buffer (ph 7.7). This was then homogenized to prepare the serotonin receptor.
For the binding experiment, 0.4 nM of [3H]2-di-n-propylamino-8-hydroxy-1,2,3,4-tetrahydronapthalene (8-DPAT; 8-hydroxy-N,N-dipropyl-2-aminotetetrilin) was used, various concentrations of test samples were added to a system of 0.25 mg/ml of protein or a total of 0.25 ml, and these were incubated at 25° C. for 30 minutes. A Whatman GF/C filter was used to filter each of the reaction solutions, then the filter was washed by 20 mM tris-phosphate buffer (pH 7.7). The serotonin receptor was trapped by the filter and the radio activity of the 8-OH-DAPT bonded to it was measured to find the degree of binding. The 50% inhibiting concentration of binding affinity (IC50) was calculated from the degrees of binding in the various sample concentrations. […] The IC50 values of typical compounds are shown together with the IC50 values with respect to the dopamine D2 receptor.

[2] = Acute toxicity after oral administration; conditions: rat, in vivo; 24 hours after oral administration, six-week old male rats
Source text: This value is over 50 times or more of the expected clinical dosage and therefore, it is judged that the safety of the compounds according to the present invention is high.

Wistar male rats = assay: Ischemic brain tissue damage, transient right middle cerebral artery occlusion (MCAO) model; assay type: in vivo; conditions: Rattus norvegicus, sc, 240 h; s.c., immediately after occlusion; 60 minutes occlusion; brain tissue damage 10 days after restart of blood flow (number of benzodiazepine bindings); read-out: Minimum effective dosage
Description: The evaluation of the efficacy on ischemic brain damage of the compounds of the general formulae (I), (II), and (III) was performed using the transient right middle cerebral artery occlusion (MCAO) model of Koizumi et al. (Jap. J. Stroke, vol. 8, pp. 1 to 8, 1986). That is, 10 to 11 week old Wistar male rats were used and the right middle cerebral artery was temporarily obstructed for 60 minutes. 10 days after the restart of the blood flow, the brains were excised and the degree of brain tissue damage of the cerebral cortex and corpus striatum of the obstructed side were evaluated by the damage marker of the number of benzodiazepine bindings. The tested drugs were dissolved in physiological saline and administered subcutaneously at the backs of the rats immediately after the right middle cerebral artery occlusion. As a control, physiological saline of […] body weight was similarly administered.

[3] = 0.4 nM [3H]8-OH-DPAT, rat hippocampus preparation, 25° C., 30 minutes, read-out: IC50 (5-HT1A)

Compound	melting point	minimal effective dose (male Wistar rats)	IC50 (dopamine D2 receptor)	D2/5-HT1A [1]	other results
O=C1c2ccccc2OC=CN1CCCCN1CCN(c2ccccn2)CC1 [Example 32, 4,5-dihydro-4-(4-(4-(2-pyridyl)piperazin-1-yl)butyl)-1,4-benzoxazepin-5-one]	150 to 151 °C	30 mg/kg			
COc1ccc2c(c1)OC=CN(CCCCN1CCN(c3ncccn3)CC1)C2=O [Example 33, 4,5-dihydro-8-methoxy-4-(4-(4-(2-pyrimidinyl)piperazin-1-yl)butyl)-1,4-benzoxazepin-5-one]	156 to 158 °C	10 mg/kg			
CC1=COc2ccccc2C(=O)N1CCCCN1CCN(c2ncccn2)CC1 [Example 34, 4,5-dihydro-3-methyl-4-(4-(4-(2-pyrimidinyl)piperazin-1-yl)butyl)-1,4-benzoxazepin-5-one]	141 to 142 °C	30 mg/kg			
CC1=COc2ccccc2C(=O)N1CCCCN1CCN(c2cccc(Cl)n2)CC1 [Example 35, 4-(4-(4-(2-chloropyridin-6-yl)piperazin-1-yl)butyl)-4,5-dihydro-3-methyl-1,4-benzoxazepin-5-one]	166 to 168 °C		294 nM	196	IC50 [1, 3]: 1.5 nM
CC1=COc2cc(C)ccc2C(=O)N1CCCCN1CCN(c2cccc(C)c2)CC1 [Example 37]	113 to 115 °C				
COc1ccccc1N1CCN(CCCCN2C(=O)c3ccc(C)cc3OC=C2C)CC1 [Example 38, 4,5-dihydro-3,8-dimethyl-4-(4-(4-(2-methoxyphenyl)piperazin-1-yl)butyl)-1,4-benzoxazepin-5-one]	88 to 90 °C				
CC1=COc2ccc(C)cc2C(=O)N1CCCCN1CCN(c2ncc(F)c(N)n2)CC1 [Example 40, 4-(4-(4-(4-amino-5-fluoropyrimidin-2-yl)piperazin-1-yl)butyl)-4,5-dihydro-3,7-dimethyl-1,4-benzoxazepin-5-one]	243 to 245 °C				
O=C1c2ccccc2OC=C(Cl)N1CCCCN1CC=C(c2ncccn2)CC1 [Example 56, 3-chloro-4,5-dihydro-4-(4-(4-(2-pyrimidinyl)-1,2,5,6-tetrahydropyridin-1-yl)butyl)-1,4-benzoxazepin-5-one]			494 nM	358	LD50 at 24 h [2]: ≥ 100 mg/kg; IC50 [1]: 1.38 nM; minimal effective dose (Wistar male rats): 1 mg/kg
O=C1c2ccccc2OC=C(Cl)N1CCCCN1CC=C(c2ccccn2)CC1 [Example 82]		30 mg/kg	128 nM	84	IC50 [1, 3]: 0.47 nM; minimal effective dose (Wistar male rats): 0.3 mg/kg

Reference: patent US6337397B1, “Pyrimidine derivatives and their salts, useful for making benzoxazepine derivatives” (Suntory Limited, priority 1995, dated 2002)
